Our source for the IC50 values is patent US6265572A, “Pyrrolidincarbonylamino cyclic disulfide anti-inflammatory agents” (Hoffmann-La Roche Inc., priority 2000, dated 2001).

The target of one test is T1, VLA-4/VCAM-1 (Homo sapiens, UniProt P05556+P13612).
T1 construct: Ramos cell-derived VLA-4; endogenous in cells; host or cells: Ramos cells (VLA-4)
Briefly: VLA-4/VCAM-1 Screening Assay (solid-phase, dual antibody ELISA). The format is binding. The conditions noted are these: Ramos cell-derived VLA-4, immobilized recombinant human VCAM-1. The source says:
A means for determining the potency of these anti-inflammatory agents is by evaluating their ability to inhibit binding of the integrin VLA-4 to the cell adhesion molecule VCAM-1. For example, the potency of the compounds herein can be determined with respect to the concentration of the compound at 50% inhibition of VCAM/VLA4 binding (IC50) as measured by VLA-4/VCAM-1 binding assay.
In accordance with the present invention, any conventional method known in the art can be used to determine inhibition of VCAM-1/VLA-4 binding. For example, a solid-phase dual antibody ELISA or Ramos cell-based screening assay can be utilized to determine inhibition of VCAM-1/VLA-4 binding.
VLA-4/VCAM-1 Screening Assay
VLA-4 antagonist activity, defined as ability to compete for binding to immobilized VCAM-1, was quantitated using a solid-phase, dual antibody ELISA. VLA-4 (α4β1 integrin) bound to VCAM-1 is detected by a complex of anti-integrin β1 antibody: HRP-conjugated anti-mouse IgG: chromogenic substrate (K-Blue). Initially, this entailed coating 96 well plates (Nunc Maxisorp) with recombinant human VCAM-1 (0.4 μg in 100 μl PBS), sealing each plate and then allowing the plates to stand at 4° C. for 18 hours. […] On the day of assay, all plates are washed twice with VCAM Assay Buffer (200 μl/well of 50 mM Tris-HCl, 100 mM NaCl, 1 mM MnCl2, 0.05% T ween 20; pH 7.4). Test compounds are dissolved in 100% DMSO and then diluted 1:20 in VCAM Assay Buffer supplemented with 1 mg/mL BSA (i.e., final DMSO=5%). A series of 1:4 dilutions are performed to achieve a concentration range of 0.005 nM-1.563 μM for each test compound. 100 μl per well of each dilution is added to the VCAM-coated plates, followed by 10 μl of Ramos cell-derived VLA-4. These plates are sequentially mixed on a platform shaker for 1 min, incubated for 2 hour at 37° C., and then washed four times with 200 μl/well VCAM Assay Buffer. 100 μl of mouse anti-human integrin b1 antibody is added to each well (0.6 μg/mL in VCAM Assay Buffer+1 mg/mL BSA) and allowed to incubate for 1 hour at 37° C. At the conclusion of this incubation period, all plates are washed four times with VCAM Assay Buffer (200 μl/well). A corresponding second antibody, HRP-conjugated goat anti-mouse IgG (100 μl per well @ 1:800 dilution in VCAM Assay Buffer+1 mg/mL BSA), is then added to each well, followed by a 1 hour incubation at room temperature and concluded by three washes (200 μl/well) with VCAM Assay Buffer. Color development is initiated by addition of 100 μl K-Blue per well (15 mim incubation, room temp) and terminated by addition of 100 μl Red Stop Buffer per well. All plates are then read in a UV/Vis spectrophotometer at […]. Results are calculated as % inhibition of total binding (i.e., VLA-4+VCAM-1 in the absence of test compound).
A general note: ELISA stands for enzyme-linked immunosorbent assay.

A further test addresses T2, Ramos (VLA-4)/VCAM-1 (Homo sapiens, UniProt P05556+P13612).
T2 construct: Ramos cells bearing cell-surface VLA-4; endogenous in cells; host or cells: Ramos cells (VLA-4); soluble VCAM-1 purified from CHO cell culture media
Briefly: Ramos (VLA-4)/VCAM-1 Cell-Based Screening Assay (Ramos-VCAM-1 cell adhesion). To be noted: Calcein-AM labeled Ramos cells, immobilized recombinant human VCAM-1. On the procedure:
Ramos (VLA-4)/VCAM-1 Cell-Based Screening Assay Protocol
Soluble recombinant human VCAM-1 (mixture of 5- and 7-Ig domain) was purified from CHO cell culture media by immunoaffinity chromatography and maintained in a solution containing 0.1 M Tris-glycine (pH 7.5), 0.1 M NaCl, 5 mM EDTA, 1 mM PMSF, […] NaN3 and 10 μg/mL leupeptin. Calcein-AM was purchased from Molecular Probes Inc.
VLA-4 (a4b1 integrin) antagonist activity, defined as the ability to compete with cell-surface VLA-4 for binding to immobilized VCAM-1, was quantitated using a Ramos-VCAM-1 cell adhesion assay. Ramos cells bearing cell-surface VLA-4, were labeled with a fluorescent dye (Calcein-AM) and allowed to bind VCAM-1 in the presence or absence of test compounds. A reduction in fluorescence intensity associated with adherent cells (% inhibition) reflected competitive inhibition of VLA-4 mediated cell adhesion by the test compound.
Initially, this entailed coating 96 well plates (Nunc Maxisorp) with recombinant human VCAM-1 (100 ng in 100 μl PBS), sealing each plate and allowing the plates to stand at 4° C. for ^~ 18 hour. The VCAM-coated plates were subsequently washed twice with 0.05% Tween-20 in PBS, and then blocked for 1 hour (room temperature) with 200 μl of Blocking Buffer (1% BSA/0.02% thimerosal) to reduce non-specific binding. Following the incubation with Blocking Buffer, plates were inverted, blotted and the remaining buffer aspirated. Each plate was then washed with 300 μl PBS, inverted and the remaining PBS aspirated.
Test compounds were dissolved in 100% DMSO and then diluted 1:25 in VCAM Cell Adhesion Assay Buffer (4 mM CaCl2, 4 mM MgCl2 in 50 mM TRIS-HCl, pH 7.5) (final DMSO=4%). A series of eight 1:4 dilutions were performed for each compound (general concentration range of 1 nM-12,500 nM). 100 μl/well of each dilution was added to the VCAM-coated plates, followed by 100 μl of Ramos cells (200,000 cells/well in 1% BSA/PBS). Plates containing test compounds and Ramos cells were allowed to incubate for 45 min at room temperature, after which 165 μl/well PBS was added. Plates were inverted to remove non-adherent cells, blotted and 300 μl/well PBS added. Plates were again inverted, blotted and the remaining buffer gently aspirated. 100 μl Lysis Buffer (0.1% SDS in 50 mM TRIS-HCl, pH 8.5) was added to each well and agitated for 2 min on a rotary shaking platform. The plates were then read for fluorescence intensity on a Cytofluor 2300 (Millipore) fluorecence measurement system (excitation=485 nm, emission=530 nm).

Molecules are shown by their SMILES.

T1 sequence (P13612 34-1032): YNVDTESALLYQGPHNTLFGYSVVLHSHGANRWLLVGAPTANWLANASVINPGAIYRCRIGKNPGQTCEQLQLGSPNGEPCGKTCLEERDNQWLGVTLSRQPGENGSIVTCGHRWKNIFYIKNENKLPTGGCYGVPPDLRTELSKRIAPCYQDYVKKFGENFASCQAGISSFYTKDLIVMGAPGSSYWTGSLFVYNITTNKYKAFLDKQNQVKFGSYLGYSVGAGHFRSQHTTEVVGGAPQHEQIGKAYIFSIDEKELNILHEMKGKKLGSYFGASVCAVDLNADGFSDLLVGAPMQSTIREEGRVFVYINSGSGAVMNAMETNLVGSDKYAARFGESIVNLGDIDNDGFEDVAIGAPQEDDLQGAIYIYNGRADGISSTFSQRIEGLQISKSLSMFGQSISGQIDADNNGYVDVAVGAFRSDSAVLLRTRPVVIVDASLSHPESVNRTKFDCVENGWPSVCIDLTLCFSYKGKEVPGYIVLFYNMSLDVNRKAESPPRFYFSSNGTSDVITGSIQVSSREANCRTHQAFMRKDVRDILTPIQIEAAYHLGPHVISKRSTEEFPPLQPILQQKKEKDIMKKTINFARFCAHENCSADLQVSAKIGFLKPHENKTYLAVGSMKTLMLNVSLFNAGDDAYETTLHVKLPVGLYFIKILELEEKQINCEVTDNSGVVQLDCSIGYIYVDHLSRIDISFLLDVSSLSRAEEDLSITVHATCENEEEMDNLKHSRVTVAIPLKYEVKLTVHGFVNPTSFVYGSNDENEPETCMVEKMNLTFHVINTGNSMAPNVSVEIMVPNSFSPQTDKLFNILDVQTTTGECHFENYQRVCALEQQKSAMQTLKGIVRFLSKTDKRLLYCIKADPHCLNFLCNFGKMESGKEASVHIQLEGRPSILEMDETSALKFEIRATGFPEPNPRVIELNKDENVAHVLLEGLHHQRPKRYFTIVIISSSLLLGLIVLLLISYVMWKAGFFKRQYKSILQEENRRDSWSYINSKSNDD
T1 sequence (P05556 21-798): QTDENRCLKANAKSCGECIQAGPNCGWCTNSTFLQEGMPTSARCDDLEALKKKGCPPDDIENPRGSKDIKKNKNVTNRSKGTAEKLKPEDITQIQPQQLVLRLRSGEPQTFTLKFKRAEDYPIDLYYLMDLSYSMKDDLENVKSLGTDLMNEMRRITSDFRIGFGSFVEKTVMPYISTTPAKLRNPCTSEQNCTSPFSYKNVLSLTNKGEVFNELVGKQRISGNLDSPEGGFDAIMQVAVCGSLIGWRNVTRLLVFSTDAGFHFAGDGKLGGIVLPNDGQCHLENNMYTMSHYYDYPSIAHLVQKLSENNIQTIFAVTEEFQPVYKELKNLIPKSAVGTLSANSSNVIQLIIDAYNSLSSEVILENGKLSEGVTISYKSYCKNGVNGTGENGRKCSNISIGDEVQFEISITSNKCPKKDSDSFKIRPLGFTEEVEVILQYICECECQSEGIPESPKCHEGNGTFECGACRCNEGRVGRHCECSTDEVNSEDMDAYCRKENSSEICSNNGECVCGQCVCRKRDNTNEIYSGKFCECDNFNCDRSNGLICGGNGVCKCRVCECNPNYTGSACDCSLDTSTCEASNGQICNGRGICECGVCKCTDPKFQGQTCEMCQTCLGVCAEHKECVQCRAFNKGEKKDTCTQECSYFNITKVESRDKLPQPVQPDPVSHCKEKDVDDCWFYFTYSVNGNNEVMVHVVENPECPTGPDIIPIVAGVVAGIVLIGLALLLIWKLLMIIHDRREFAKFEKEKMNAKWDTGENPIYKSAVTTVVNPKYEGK
T2 sequence (P13612 34-1032): as the sequence (P13612 34-1032) above
T2 sequence (P05556 21-798): as the sequence (P05556 21-798) above

For the compound `CC(=O)N1CC[C@H](c2ccc(O)cc2)[C@H]1C(=O)N[C@H]1CSSC[C@@H](C(=O)O)NC(=O)C2(CCCC2)CCNC1=O` [Example 12, (8R,13R)-13-[[[1-acetyl-3-(R)-(4-hydroxyphenyl)-2-(S)-pyrrolidinyl]carbonyl]amino]-6,14-dioxo-10,11-dithia-7,15-diazaspiro[4. 12]heptadecane-8-carboxylic Acid], the figures for the IC50 at VLA-4/VCAM-1 and on Ramos (VLA-4)/VCAM-1 were 0.185 nM and 0.21 nM, respectively. Take `CS(=O)(=O)N1CC[C@H](c2ccc(O)cc2)[C@H]1C(=O)N[C@H]1CSSC[C@@H](C(=O)O)NC(=O)C2(CCCC2)CCNC1=O` [Example 22, (8R,13R)-13-[[[1-methylsulfonyl-3-(R)-(4-hydroxyphenyl)-2-(S)pyrrolidinyl]carbonyl]amino]-6,14-dioxo-10,11-dithia-7,15-diazaspiro[4. 12]-heptadecane-8-carboxylic Acid]: on VLA-4/VCAM-1, the IC50 was 0.17 nM. As to `CC(=O)N1CC[C@H](c2ccc(O)cc2)[C@H]1C(=O)N[C@H]1CSSC[C@@H](C(=O)O)NC(=O)C2(CCCCC2)CCNC1=O` [Example 19, (9R,14R)-14-[[[1-acetyl-3-(R)-(4-hydroxyphenyl)-2-(S)-pyrrolidinyl]-arbonyl]amino]-7,15-dioxo-11,12-dithia-8,16-diazaspiro[5. 12]Octadecane-9-carboxylic Acid], the values for the IC50 at VLA-4/VCAM-1 and on Ramos (VLA-4)/VCAM-1 were 0.12 nM and 0.28 nM, respectively. Consider `CC(C)(C)C(=O)N1CC[C@H](c2ccc(O)cc2)[C@H]1C(=O)N[C@H]1CSSC[C@@H](C(=O)O)NC(=O)C2(CCCC2)CCNC1=O` [Example 24, (8R,13R)-13-[[[1-(2,2-dimethyl-1-oxopropyl)-3(R)-(4-hydroxyphenyl)-2(S)-pyrrolidinyl]carbonyl]amino]-6,14-dioxo-10,11-dithia-7,15-diazaspiro[4. 12]heptadecane-8-carboxylic Acid], for which the half-inhibitory concentration (IC50) at VLA-4/VCAM-1 was 0.14 nM; at Ramos (VLA-4)/VCAM-1 it was 0.18 nM.

On to `CC(=O)N1CC[C@@H](c2ccc(O)cc2)[C@@H]1C(=O)N[C@H]1CSSC[C@@H](C(=O)O)NC(=O)C2(CCCC2)CCNC1=O` [reference compound], for which the figures for the half-maximal inhibitory concentration (IC50) on VLA-4/VCAM-1 and on Ramos (VLA-4)/VCAM-1 were 1.65 nM and 24 nM, respectively. Consider `O=C(O)[C@@H]1CSSC[C@H](NC(=O)[C@H]2NCC[C@@H]2c2ccc(O)cc2)C(=O)NCCC2(CCCC2)C(=O)N1` [Example 26, (8R,13R)-13-[[[3(R)-(4-hydroxyphenyl)-2(S)-pyrrolidinyl]carbonyl]-amino]-6,14-dioxo-10,11-dithia-7,15-diazaspiro[4.12]heptadecane-8-carboxylic Acid], for which the IC50 at VLA-4/VCAM-1 was 0.19 nM.

The term IC50 denotes the concentration that gives 50% inhibition.
